Test results reported in patent US20230128137A1, “BENZO FIVE-MEMBERED CYCLIC COMPOUND” (MEDSHINE DISCOVERY INC., priority 2020, published 2023).

Columns and labels:
[1] = system: RS4;11 cells; experiment: CTG (CellTiter-Glo) test of inhibition of RS4;11 cell proliferation; format: cell-based; settings: Homo sapiens, 72 hours incubation
Protocol: 2.1 Experimental objectives: To obtain the IC50 value of the test compound in RS4;11 cell lines;
2.2 incubation time: 72 hours;
2.3 experimental method: CTG (Cell Titer-Glo™ Luminescent Cell Viability Assay);
a. when the cells were fused to 80%, the cells were collected and counted;
b. RS4; 11 cell suspension was diluted to 5000 cells/well and 20 uls of cell suspension was seeded in each well of 384-well plate;
c. the cell plates were placed back to 37° C. and incubated in a 5% carbon dioxide incubator for 24 hours;
d. the test compound was prepared into DMSO solution, and 5 μL of each was added to the designated well of the test plate, and the final concentration of DMSO solution was 0.5%;
e. initiation cell viability was detected by CTG;
f. the test plate was put back into the incubator and incubated for another 72 hours;
g. after 72 hours incubation, CellTiter-Glo™ luminescent cell viability assay was completed according to the manufacturer's manual;

[2] = target: T1, Bcl-2 (Homo sapiens, UniProt P10415); experiment: HTRF competition test, Bcl-2 with FAM-BAK peptide (enzymology experiment); format: binding; settings: 4 nM Bcl-2 and 100 nM FAM-BAK, read-out: IC50 (nM) for inhibition of Bcl-2 enzyme
T1 construct: Human recombinant Bcl-2 (amino acid 1-207); purchased Reaction Biology Corporation (RBC) APT-11-441; host or cells: E. coli
T1 sequence (P10415 1-207): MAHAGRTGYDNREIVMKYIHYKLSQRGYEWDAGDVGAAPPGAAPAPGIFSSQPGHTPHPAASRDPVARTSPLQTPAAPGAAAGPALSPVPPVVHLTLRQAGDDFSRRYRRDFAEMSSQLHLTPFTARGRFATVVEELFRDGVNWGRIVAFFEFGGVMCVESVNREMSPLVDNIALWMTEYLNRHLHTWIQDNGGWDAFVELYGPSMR
Protocol: (§1) This experiment was based on the competition between fluorescently-labeled Bak/Bad/Noxa peptides and GST-labeled Bcl family proteins. The fluorescence detection method based on HTRF was to observe the binding degree by using the fluorescence ratio between Tb-labeled anti-GST and FAM-labeled peptides. This peptide binds to the surface of the Bcl family protein pocket, which is essential for its anti-apoptotic function.
(§2) 1.1 Experimental reagents: analysis buffer: 20 mM potassium phosphate, pH 7.5, 50 mM sodium chloride, 1 mM EDTA, 0.005% Tritonx-100 and 1% DMSO.
(§3) 1.2 Probe: 5,6-FAM-peptide
(§4) 1.4 Experimental Conditions:
4 nM Bcl-2 and 100 nM FAM-BAK
(§5) a) The Bcl enzyme reaction solution was prepared in the newly prepared analysis buffer;
(§6) b) the Bcl enzyme reaction solution was provided;
(§7) c) the compound was first prepared into a 100% dimethyl sulfoxide solution, and then the compound solution was mixed with the Bcl enzyme reaction solution using (Echo550; nanoliter range) technology, and co-incubated for 10 minutes;
(§8) d) the FAM peptide solution was added.
(§9) e) the mixed solution was gently stirred in dark and room temperature, and co-cultured for 10 minutes.
(§10) f) Anti-GST solution was added.
(§11) g) The mixed solution was gently stirred in dark and room temperature, and co-cultured for 1 hour.
(§12) h) The HTRF high-frequency fluorescence ratio was tested, and the IC50 values were calculated.

[3] = target: T2, Bcl-xL (Homo sapiens, UniProt Q07817); experiment: HTRF competition test, Bcl-xL with FAM-Bad peptide (enzymology experiment); format: binding; settings: 3 nM Bcl-xL and 40 nM FAM-Bad, read-out: IC50 (nM) for inhibition of Bcl-xL enzyme
T2 construct: Human recombinant Bcl-xL (amino acid 1-209); purchased Reaction Biology Corporation (RBC) APT-11-442; host or cells: E. coli
T2 sequence (Q07817 1-209): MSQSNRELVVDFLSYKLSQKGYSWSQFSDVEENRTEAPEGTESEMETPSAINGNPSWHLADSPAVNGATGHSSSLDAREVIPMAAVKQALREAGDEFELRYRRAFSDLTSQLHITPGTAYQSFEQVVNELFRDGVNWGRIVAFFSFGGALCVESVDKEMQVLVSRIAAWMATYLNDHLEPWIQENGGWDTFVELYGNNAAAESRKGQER
Protocol: as §1, §2, §3, §4
3 nM Bcl-xL and 40 nM FAM-Bad
as §5, §6, §7, §8, §9, §10, §11, §12

[4] = Liver microsome metabolic stability in vitro, beagle dog; format: in vitro ADME; settings: beagle dog liver microsomes; for Remaining (T = 60 min): 60 min incubation
Protocol: (§13) 3.2 preparation of nicotinamide adenine dinucleotide phosphate cofactor solution: an appropriate amount of NADPH powder was weighed and diluted into 10 mM magnesium chloride solution (working solution concentration: 10 unit/mL; final concentration of reaction system: 1 unit/mL);
(§14) 3.3 preparation of liver microsomes: an appropriate concentration working solution of liver microsomes (human, SD rat, CD-1 mouse, beagle dog) was prepared in 100 mM potassium phosphate buffer;
(§15) 3.4 preparation of quenching solution: cold (4° C.) acetonitrile containing 200 ng/mL tolbutamide and 200 ng/mL labetalol as internal standard (IS) was used as quenching solution;
(§16) 3.5 experimental operation:
(§17) a. empty “incubation” plates T60 and NCF60 were preheated for 10 minutes;
(§18) b. the liver microsomes were diluted to 0.56 mg/mL with 100 mM phosphate buffer;
(§19) c. 445 μL of microsomal working solution (0.56 mg/mL) was transferred to the preheated “incubation” plates T60 and NCF60, and then the“incubation” plates T60 and NCF60 were preincubated for 10 min with continuous shaking at 37° C. 54 μL of liver microsomes were transferred to a blank plate, and 6 μL of NAPDH cofactor was added to the blank plate, and then 180 μL of quenching solution was added thereto;
(§20) e. for NCF60 plate, 50 μL of buffer was added thereto and the mixture was fully mixed for three times. Timing was started; the plate was shaken at 37° C. for 60 minutes;
(§21) f. in “quenching” plate TO, 180 μL of quenching solution and 6 μL of NAPDH cofactor were addded to make sure that the plate was cooled down to prevent evaporation;
(§22) g. for T60 plates, the mixture was fully mixed for three times, and 54 μL of mixture was immediately transferred to the “quenching” plate at the 0 min time point. 44 μL of NAPDH cofactor was then added to the culture plate (T60). Timing was started; the plate was shaken at 37° C. for 60 minutes;
(§23) h. at 5, 10, 20, 30 and 60 min, 180 μL of quenching solution was added to the “quenching” plate, and the mixture was mixed for one time, and 60 μL of sample was continuously transferred from the T60 plate to the “quenching” plate at each time point;
(§24) i. for NCF60: the mixture was mixed for one time, and 60 μL of sample was transferred from the NCF60 culture dish to the “quenching” plate containing quenching solution at 60 minutes time point;
(§25) j. all sampling plates were shaked for 10 minutes, then centrifuged at 4000 rpm for 20 minutes at 4° C.;
(§26) k. 60 μL of supernatant was transferred into 180 μL of HPLC water and stirred with a plate shaker for 10 min;
(§27) 1. before LC-MS/MS analysis, each bioanalysis plate was sealed and shaked for 10 minutes.

[5] = Liver microsome metabolic stability in vitro, SD rat; format: in vitro ADME; settings: SD rat liver microsomes; for Remaining (T = 60 min): 60 min incubation
Protocol: as §13, §14, §15, §16, §17, §18, §19, §20, §21, §22, §23, §24, §25, §26, §27

[6] = Liver microsome metabolic stability in vitro, human; format: in vitro ADME; settings: human liver microsomes; for Remaining (T = 60 min): 60 min incubation
Protocol: as §13, §14, §15, §16, §17, §18, §19, §20, §21, §22, §23, §24, §25, §26, §27

[7] = Liver microsome metabolic stability in vitro, CD-1 mouse; format: in vitro ADME; settings: CD-1 mouse liver microsomes; for Remaining (T = 60 min): 60 min incubation
Protocol: as §13, §14, §15, §16, §17, §18, §19, §20, §21, §22, §23, §24, §25, §26, §27

With `CC1(C)CCC(CN2CCN(c3ccc(C(=O)NS(=O)(=O)c4cc([N+](=O)[O-])c(NCC5CCOCC5)c5[nH]ccc45)c(Oc4cnc5[nH]ccc5c4)c3)CC2)=C(c2ccc(Cl)cc2)C1` [Compound 1] as the compound, how does the IC50 [1] read?
Its IC50 is 1.4 nM.

What does the source list for `CC1(C)CCC(CN2CC=C(c3ccc(C(=O)NS(=O)(=O)c4cc([N+](=O)[O-])c(NCC5CCOCC5)c5[nH]cnc45)c(Oc4ccc5[nH]ccc5c4)c3)CC2)=C(c2ccc(Cl)cc2)C1` [Compound 5]?
IC50 [1]: 10.2 nM; IC50 [2]: 2.6 nM; IC50 [3]: 504 nM

Which IC50 [1] does the source give for `Cn1cnc2c(NCC3CCOCC3)c([N+](=O)[O-])cc(S(=O)(=O)NC(=O)c3ccc(N4CCN(CC5=C(c6ccc(Cl)cc6)CC(C)(C)CC5)CC4)cc3Oc3cnc4[nH]ccc4c3)c21` [Compound 6] here?
Its IC50 is 4.6 nM.

What about the IC50 [2] of the same compound?
The IC50 was 2.4 nM.

And the IC50 [3]?
The IC50 was 173 nM.

Which IC50 [1] does the source give for `CC1(C)CCC(CN2CCN(c3ccc(C(=O)NS(=O)(=O)c4cc([N+](=O)[O-])c(NCC5COCCO5)c5[nH]cnc45)c(Oc4cnc5[nH]ccc5c4)c3)CC2)=C(c2ccc(Cl)cc2)C1` (centres unmarked) [Compound 7] here?
Its IC50 is 6.8 nM.

Which IC50 [1] does the source give for `Cn1cnc2c(S(=O)(=O)NC(=O)c3ccc(N4CCN(CC5=C(c6ccc(Cl)cc6)CC(C)(C)CC5)CC4)cc3Oc3cnc4[nH]ccc4c3)cc([N+](=O)[O-])c(NCC3CCOCC3)c21` [Compound 8] here?
The IC50 was 6.5 nM.

And the IC50 [2]?
Its IC50 is 1.3 nM.

And the IC50 [3]?
Its IC50 is 1110 nM.

Which IC50 [1] does the source give for `Cc1nc2c(S(=O)(=O)NC(=O)c3ccc(N4CCN(CC5=C(c6ccc(Cl)cc6)CC(C)(C)CC5)CC4)cc3Oc3cnc4[nH]ccc4c3)cc([N+](=O)[O-])c(NCC3CCOCC3)c2[nH]1` [Compound 9] here?
Its IC50 is 1.9 nM.

What about the IC50 [2] of the same compound?
Its IC50 is 3.6 nM.

And the IC50 [3]?
Its IC50 is 326 nM.

With `O=C(O)Cc1ccccc1Nc1c(Cl)cccc1Cl` [Diclofenac] as the compound, how does the CLint scaled at 1 µM [4] read?
Its CLint scaled at 1 µM is < 13.8 mL/min/kg.

And the half-life at 1 µM [4]?
Its half-life at 1 µM is > 145 min.

And the “Remaining (T = 60 min)” value [4]?
Its value is 101%.

And the CLint scaled at 1 µM [5]?
Its CLint scaled at 1 µM is 174 mL/min/kg.

What about the T1/2 [5] of the same compound?
The T1/2 was 14.4 min.

What about the “Remaining (T = 60 min)” value [5] of the same compound?
The value was 5.2%.

And the “Remaining (T = 60 min)” value [6]?
The value was 0.0%.

And the half-life at 1 µM [7]?
Its half-life at 1 µM is 63.5 min.

And the “Remaining (T = 60 min)” value [7]?
The value was 53.0%.

With `C[C@]12CC[C@H]3[C@@H](CCC4=CC(=O)CC[C@@]43C)[C@@H]1CC[C@@H]2O` [Testosterone] as the compound, how does the CLint scaled at 1 µM [4] read?
The CLint scaled at 1 µM was 81 mL/min/kg.

And the T1/2 [4]?
The T1/2 was 24.6 min.

What about the “Remaining (T = 60 min)” value [4] of the same compound?
The value was 19%.

What about the CLint scaled at 1 µM [5] of the same compound?
The CLint scaled at 1 µM was 2180 mL/min/kg.

What about the T1/2 [5] of the same compound?
Its T1/2 is 1.1 min.

And the “Remaining (T = 60 min)” value [5]?
The value was 0.0%.

What about the “Remaining (T = 60 min)” value [6] of the same compound?
The value was 5.7%.

What about the CLint scaled at 1 µM ([6]; human) of the same compound?
Its CLint scaled at 1 µM is 155 mL/min/kg.

What about the half-life at 1 µM ([6]; human) of the same compound?
The half-life at 1 µM was 8.9 min.

What about the CLint scaled at 1 µM [7] of the same compound?
Its CLint scaled at 1 µM is 1370 mL/min/kg.

And the T1/2 [7]?
Its T1/2 is 4.0 min.

And the “Remaining (T = 60 min)” value [7]?
Its value is 0.0%.
